# According to PubChem BioAssay (NCI):
#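 All cell lines were grown in 96-well plates and treated with compound for 48 hours. TGI: total growth inhibition.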
# Columns and labels:
# Experiment in all cases: NCI tumour cell line growth inhibition, 48 h
# A498 renal = test system: A498 renal
# ACHN renal = test system: ACHN renal
# CCRF-CEM leukemia = test system: CCRF-CEM leukemia
# DMS 114 small cell lung = test system: DMS 114 small cell lung
# DMS 273 small cell lung = test system: DMS 273 small cell lung
# EKVX NSCLC = test system: EKVX NSCLC
# HCT-116 colon = test system: HCT-116 colon
# HL-60(TB) leukemia = test system: HL-60(TB) leukemia
# HOP-62 NSCLC = test system: HOP-62 NSCLC
# HOP-92 NSCLC = test system: HOP-92 NSCLC
# HT29 colon = test system: HT29 colon
# IGROV1 ovarian = test system: IGROV1 ovarian
# K-562 leukemia = test system: K-562 leukemia
# KM12 colon = test system: KM12 colon
# KM20L2 colon = test system: KM20L2 colon
# M14 melanoma = test system: M14 melanoma
# M19-MEL melanoma = test system: M19-MEL melanoma
# MOLT-4 leukemia = test system: MOLT-4 leukemia
# NCI-H23 lung = test system: NCI-H23 lung
# NCI-H460 lung = test system: NCI-H460 lung
# NCI-H522 lung = test system: NCI-H522 lung
# OVCAR-5 ovarian = test system: OVCAR-5 ovarian
# OVCAR-8 ovarian = test system: OVCAR-8 ovarian
# RXF 393 renal = test system: RXF 393 renal
# SF-295 CNS = test system: SF-295 CNS
# SK-MEL-28 melanoma = test system: SK-MEL-28 melanoma
# SK-OV-3 ovarian = test system: SK-OV-3 ovarian
# SNB-19 CNS = test system: SNB-19 CNS
# SNB-78 CNS = test system: SNB-78 CNS
# SR leukemia = test system: SR leukemia
# TK-10 renal = test system: TK-10 renal
# U251 CNS = test system: U251 CNS
# UACC-257 melanoma = test system: UACC-257 melanoma
# UACC-62 melanoma = test system: UACC-62 melanoma
# UO-31 renal = test system: UO-31 renal
# 786-0 renal = test system: 786-0 renal
# A549 NSCLC = test system: A549 NSCLC
# BT-549 breast = test system: BT-549 breast
# CAKI-1 renal = test system: CAKI-1 renal
# COLO 205 colon = test system: COLO 205 colon
# DU-145 prostate = test system: DU-145 prostate
# HCC-2998 colon = test system: HCC-2998 colon
# HCT-15 colon = test system: HCT-15 colon
# HS 578T breast = test system: HS 578T breast
# LOX IMVI melanoma = test system: LOX IMVI melanoma
# MALME-3M melanoma = test system: MALME-3M melanoma
# MCF7 breast = test system: MCF7 breast
# MDA-MB-231 breast = test system: MDA-MB-231 breast
# MDA-MB-435 = test system: MDA-MB-435
# MDA-N = test system: MDA-N
# NCI-H226 lung = test system: NCI-H226 lung
# NCI/ADR-RES ovarian = test system: NCI/ADR-RES ovarian
# OVCAR-3 ovarian = test system: OVCAR-3 ovarian
# OVCAR-4 ovarian = test system: OVCAR-4 ovarian
# PC-3 prostate = test system: PC-3 prostate
# RPMI-8226 leukemia = test system: RPMI-8226 leukemia
# SF-268 CNS = test system: SF-268 CNS
# SF-539 CNS = test system: SF-539 CNS
# SK-MEL-2 melanoma = test system: SK-MEL-2 melanoma
# SK-MEL-5 melanoma = test system: SK-MEL-5 melanoma
# SN12C renal = test system: SN12C renal
# SNB-75 CNS = test system: SNB-75 CNS
# SW-620 colon = test system: SW-620 colon
# T-47D breast = test system: T-47D breast
smiles,measurement,setting,value
CCCC(=O)OC1C(C2COC(C)(C)O2)OC2OC(C)(C)OC21 (centres undefined),TGI,A498 renal,> 100 µM
same,TGI,ACHN renal,> 100 µM
same,TGI,CCRF-CEM leukemia,> 100 µM
same,TGI,DMS 114 small cell lung,> 100 µM
same,TGI,DMS 273 small cell lung,> 100 µM
same,TGI,EKVX NSCLC,> 100 µM
same,TGI,HCT-116 colon,> 100 µM
same,TGI,HL-60(TB) leukemia,> 100 µM
same,TGI,HOP-62 NSCLC,> 100 µM
same,TGI,HOP-92 NSCLC,> 100 µM
same,TGI,HT29 colon,> 100 µM
same,TGI,IGROV1 ovarian,> 100 µM
same,TGI,K-562 leukemia,> 100 µM
same,TGI,KM12 colon,> 100 µM
same,TGI,KM20L2 colon,> 100 µM
same,TGI,M14 melanoma,> 100 µM
same,TGI,M19-MEL melanoma,> 100 µM
same,TGI,MOLT-4 leukemia,> 100 µM
same,TGI,NCI-H23 lung,> 100 µM
same,TGI,NCI-H460 lung,> 100 µM
same,TGI,NCI-H522 lung,> 100 µM
same,TGI,OVCAR-5 ovarian,> 100 µM
same,TGI,OVCAR-8 ovarian,> 100 µM
same,TGI,RXF 393 renal,> 100 µM
same,TGI,SF-295 CNS,> 100 µM
same,TGI,SK-MEL-28 melanoma,> 100 µM
same,TGI,SK-OV-3 ovarian,> 100 µM
same,TGI,SNB-19 CNS,> 100 µM
same,TGI,SNB-78 CNS,> 100 µM
same,TGI,SR leukemia,> 100 µM
same,TGI,TK-10 renal,> 100 µM
same,TGI,U251 CNS,> 100 µM
same,TGI,UACC-257 melanoma,> 100 µM
same,TGI,UACC-62 melanoma,> 100 µM
same,TGI,UO-31 renal,> 100 µM
Cc1cc(/N=C/c2ccc(Cl)cc2)n(-c2ccccc2)n1,TGI,786-0 renal,> 100 µM
same,TGI,A498 renal,79.7 µM
same,TGI,A549 NSCLC,> 100 µM
same,TGI,ACHN renal,> 100 µM
same,TGI,BT-549 breast,> 100 µM
same,TGI,CAKI-1 renal,> 100 µM
same,TGI,CCRF-CEM leukemia,> 100 µM
same,TGI,COLO 205 colon,> 100 µM
same,TGI,DU-145 prostate,> 100 µM
same,TGI,EKVX NSCLC,> 100 µM
same,TGI,HCC-2998 colon,71 µM
same,TGI,HCT-116 colon,> 100 µM
same,TGI,HCT-15 colon,> 100 µM
same,TGI,HL-60(TB) leukemia,91.5 µM
same,TGI,HOP-62 NSCLC,> 100 µM
same,TGI,HOP-92 NSCLC,> 100 µM
same,TGI,HS 578T breast,> 100 µM
same,TGI,HT29 colon,> 100 µM
same,TGI,IGROV1 ovarian,> 100 µM
same,TGI,K-562 leukemia,> 100 µM
same,TGI,KM12 colon,> 100 µM
same,TGI,LOX IMVI melanoma,> 100 µM
same,TGI,M14 melanoma,> 100 µM
same,TGI,MALME-3M melanoma,> 100 µM
same,TGI,MCF7 breast,> 100 µM
same,TGI,MDA-MB-231 breast,> 100 µM
same,TGI,MDA-MB-435,> 100 µM
same,TGI,MDA-N,> 100 µM
same,TGI,MOLT-4 leukemia,> 100 µM
same,TGI,NCI-H226 lung,> 100 µM
same,TGI,NCI-H23 lung,> 100 µM
same,TGI,NCI-H460 lung,> 100 µM
same,TGI,NCI-H522 lung,> 100 µM
same,TGI,NCI/ADR-RES ovarian,> 100 µM
same,TGI,OVCAR-3 ovarian,> 100 µM
same,TGI,OVCAR-4 ovarian,> 100 µM
same,TGI,OVCAR-5 ovarian,> 100 µM
same,TGI,OVCAR-8 ovarian,> 100 µM
same,TGI,PC-3 prostate,> 100 µM
same,TGI,RPMI-8226 leukemia,> 100 µM
same,TGI,RXF 393 renal,77.1 µM
same,TGI,SF-268 CNS,> 100 µM
same,TGI,SF-295 CNS,> 100 µM
same,TGI,SF-539 CNS,> 100 µM
same,TGI,SK-MEL-2 melanoma,> 100 µM
same,TGI,SK-MEL-28 melanoma,> 100 µM
same,TGI,SK-MEL-5 melanoma,68.8 µM
same,TGI,SK-OV-3 ovarian,> 100 µM
same,TGI,SN12C renal,> 100 µM
same,TGI,SNB-19 CNS,> 100 µM
same,TGI,SNB-75 CNS,> 100 µM
same,TGI,SR leukemia,> 100 µM
same,TGI,SW-620 colon,> 100 µM
same,TGI,T-47D breast,79.4 µM
same,TGI,TK-10 renal,> 100 µM
same,TGI,U251 CNS,> 100 µM
same,TGI,UACC-257 melanoma,> 100 µM
same,TGI,UACC-62 melanoma,> 100 µM
same,TGI,UO-31 renal,> 100 µM
